Results reported in publication PMC4021102, “The onset of grapevine berry ripening is characterized by ROS accumulation and lipoxygenase-mediated membrane peroxidation in the skin” (BMC Plant Biology, 2014).

Biological target: T1, PnLOXA (Vitis vinifera, UniProt D7SLA9)
T1 construct: gene VIT_06s0004g01510
Settings: 0.1 mM substrate, pH 6.5, 25 °C; exclusively 13-product

T1 sequence (D7SLA9 entry or part of it): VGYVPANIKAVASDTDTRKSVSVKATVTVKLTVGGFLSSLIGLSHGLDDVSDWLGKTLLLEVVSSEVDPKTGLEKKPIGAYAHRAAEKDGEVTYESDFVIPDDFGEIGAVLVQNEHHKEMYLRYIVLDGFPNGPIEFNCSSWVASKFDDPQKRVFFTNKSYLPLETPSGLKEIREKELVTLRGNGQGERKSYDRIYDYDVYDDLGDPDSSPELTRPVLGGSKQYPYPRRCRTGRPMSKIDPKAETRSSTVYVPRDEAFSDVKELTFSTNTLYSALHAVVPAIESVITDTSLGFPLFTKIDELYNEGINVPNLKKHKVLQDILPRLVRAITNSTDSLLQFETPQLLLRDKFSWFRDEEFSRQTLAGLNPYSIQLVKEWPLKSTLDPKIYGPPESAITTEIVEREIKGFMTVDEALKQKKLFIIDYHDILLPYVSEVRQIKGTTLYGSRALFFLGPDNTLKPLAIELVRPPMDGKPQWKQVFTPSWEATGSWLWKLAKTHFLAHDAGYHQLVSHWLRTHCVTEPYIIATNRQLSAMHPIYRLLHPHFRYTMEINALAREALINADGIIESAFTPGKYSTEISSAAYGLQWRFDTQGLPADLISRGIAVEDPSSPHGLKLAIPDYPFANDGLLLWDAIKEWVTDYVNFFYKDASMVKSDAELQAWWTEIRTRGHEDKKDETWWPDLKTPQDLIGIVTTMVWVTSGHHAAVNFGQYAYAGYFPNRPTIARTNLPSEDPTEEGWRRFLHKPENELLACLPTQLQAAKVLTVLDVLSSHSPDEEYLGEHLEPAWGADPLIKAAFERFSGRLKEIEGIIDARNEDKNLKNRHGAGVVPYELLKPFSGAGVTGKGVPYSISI

## CC/C=C\C/C=C\C/C=C\CCCCCCCC(=O)O [α-linolenic acid]
  peroxidation product identified by ESI-MS/MS: PnLOXA catalyzed the regiospecific peroxidation of α-linolenic acid to produce exclusively 13-HOTrE
